“And” between values parts separate entries of the source, which are not always exact repeats. Equal values may be shown once.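 Interpolation was linear, between the two tested concentrations surrounding the appropriate level; five concentrations were tested over 48 hours in 96-well plates. GI50 = concentration required for 50% inhibition of growth. The concentration for full growth arrest is given as TGI.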
Columns and labels:
Test in all cases: inhibition of tumour cell growth, NCI panel, 48 h
T-47D breast = test system: T-47D breast
MCF7 breast = test system: MCF7 breast
NCI/ADR-RES ovarian = test system: NCI/ADR-RES ovarian
MDA-MB-231 breast = test system: MDA-MB-231 breast
DU-145 prostate = test system: DU-145 prostate
BT-549 breast = test system: BT-549 breast

O=C1Cc2cc(CCn3ccnc3)c(Cl)cc2N1
GI50 (T-47D breast): 75.6 µM | TGI (T-47D breast): > 100 µM | GI50 (MCF7 breast): 4.12 µM | TGI (MCF7 breast): > 100 µM | GI50 (NCI/ADR-RES ovarian): 5.46 µM | TGI (NCI/ADR-RES ovarian): > 100 µM | GI50 (MDA-MB-231 breast): 5.18 µM | TGI (MDA-MB-231 breast): > 100 µM | GI50 (DU-145 prostate): 8.02 µM | TGI (DU-145 prostate): > 100 µM | GI50 (BT-549 breast): 9.51 µM | TGI (BT-549 breast): > 100 µM

O=S(=O)(NCCNc1nccc(-c2c(-c3cccc(O)c3)nc3sccn23)n1)c1ccc(F)cc1
GI50 (T-47D breast): 6.54 µM | TGI (T-47D breast): 25 µM | GI50 (MCF7 breast): 2.39 µM | TGI (MCF7 breast): 14.9 µM | GI50 (NCI/ADR-RES ovarian): 53 µM | TGI (NCI/ADR-RES ovarian): > 100 µM | GI50 (MDA-MB-231 breast): 4.88 µM | TGI (MDA-MB-231 breast): 44.8 µM | GI50 (DU-145 prostate): 8.94 µM | TGI (DU-145 prostate): 38.7 µM | GI50 (BT-549 breast): 5.32 µM | TGI (BT-549 breast): 30 µM

CCCNc1nc(N(C)O)nc(N(C)O)n1
GI50 (T-47D breast): 3.9 µM | TGI (T-47D breast): > 100 µM | GI50 (MCF7 breast): 2.44 µM | TGI (MCF7 breast): > 100 µM | GI50 (NCI/ADR-RES ovarian): 2.15 µM | TGI (NCI/ADR-RES ovarian): > 100 µM | GI50 (MDA-MB-231 breast): 5.31 µM | TGI (MDA-MB-231 breast): > 100 µM | GI50 (DU-145 prostate): 1.46 µM | TGI (DU-145 prostate): > 30.1 µM | GI50 (BT-549 breast): 3.34 µM | TGI (BT-549 breast): > 29.9 µM

CCOc1ccc(Cc2nccc3cc(OCC)c(OCC)cc23)cc1OCC
GI50 (T-47D breast): 1.47 µM | TGI (T-47D breast): 15 µM | GI50 (MCF7 breast): 9.94 µM | TGI (MCF7 breast): 23.8 µM | GI50 (NCI/ADR-RES ovarian): 4.87 µM | TGI (NCI/ADR-RES ovarian): 39.6 µM | GI50 (MDA-MB-231 breast): 4.02 µM | TGI (MDA-MB-231 breast): 25.9 µM | GI50 (DU-145 prostate): 12.9 µM | TGI (DU-145 prostate): 31.8 µM | GI50 (BT-549 breast): 5.16 µM | TGI (BT-549 breast): 19.1 µM

COc1cc2c(cc1OC)C(CCc1ccc(Cl)cc1)N(C)CC2 (configuration not stated)
GI50 (T-47D breast): 23.8 µM | TGI (T-47D breast): 76.8 µM | GI50 (MCF7 breast): 21.2 µM | TGI (MCF7 breast): 47 µM | GI50 (NCI/ADR-RES ovarian): 17.7 µM | TGI (NCI/ADR-RES ovarian): 39.4 µM | GI50 (MDA-MB-231 breast): 16.3 µM | TGI (MDA-MB-231 breast): 39.1 µM | GI50 (DU-145 prostate): 51.9 µM | TGI (DU-145 prostate): > 100 µM | GI50 (BT-549 breast): 33.5 µM | TGI (BT-549 breast): > 100 µM

COc1cc2c(cc1OCCCCNC(=O)c1cc3ccccc3[nH]1)N=CC1CCCN1C2=O (configuration not stated)
GI50 (T-47D breast): 21.7 µM | TGI (T-47D breast): > 100 µM | GI50 (MCF7 breast): 6.82 µM | TGI (MCF7 breast): > 100 µM | GI50 (NCI/ADR-RES ovarian): 20.9 µM | TGI (NCI/ADR-RES ovarian): > 100 µM | GI50 (MDA-MB-231 breast): 14.9 µM | TGI (MDA-MB-231 breast): 66.8 µM | GI50 (DU-145 prostate): 5.31 µM | TGI (DU-145 prostate): 69.8 µM | GI50 (BT-549 breast): 8.79 µM | TGI (BT-549 breast): 51.1 µM

O=C(Nc1cccc(Cl)c1)Nc1cccc(Cl)c1
GI50 (T-47D breast): 2.28 µM | TGI (T-47D breast): > 100 µM | GI50 (MCF7 breast): 5.79 µM | TGI (MCF7 breast): > 100 µM | GI50 (MDA-MB-231 breast): 18.2 µM | TGI (MDA-MB-231 breast): > 100 µM | GI50 (BT-549 breast): > 100 µM | TGI (BT-549 breast): > 100 µM

C=C1CC[C@@H]2C(C)(C)[C@@H](O)CC[C@@]2(C)[C@@H]1COc1ccc2ccc(=O)oc2c1
GI50 (T-47D breast): 5.81 µM | TGI (T-47D breast): 32.5 µM | GI50 (MCF7 breast): 8.02 µM | TGI (MCF7 breast): 24.7 µM | GI50 (NCI/ADR-RES ovarian): 10.5 µM | TGI (NCI/ADR-RES ovarian): 30.8 µM | GI50 (MDA-MB-231 breast): 15.4 µM | TGI (MDA-MB-231 breast): 31.8 µM | GI50 (DU-145 prostate): 17.3 µM | TGI (DU-145 prostate): 48.2 µM | GI50 (BT-549 breast): 6.65 µM | TGI (BT-549 breast): 20.1 µM

CC(C)=CC/C=C(/C)[C@H]1CC[C@]2(C)[C@@H]1CC[C@@H]1[C@@]3(C)CCC(=O)NC(C)(C)[C@@H]3CC[C@]12C
GI50 (T-47D breast): 19.8 µM | TGI (T-47D breast): 91 µM | GI50 (MCF7 breast): 18.8 µM | TGI (MCF7 breast): 62.8 µM | GI50 (NCI/ADR-RES ovarian): 22.2 µM | TGI (NCI/ADR-RES ovarian): 55.6 µM | GI50 (MDA-MB-231 breast): 20.5 µM | TGI (MDA-MB-231 breast): 44.3 µM | GI50 (DU-145 prostate): 16.9 µM | TGI (DU-145 prostate): 31.7 µM | GI50 (BT-549 breast): 18.7 µM | TGI (BT-549 breast): 43.5 µM

CN(C)CC(C(=O)c1ccccc1)c1ccccc1 (configuration not stated)
GI50 (T-47D breast): 2.03 µM | TGI (T-47D breast): 5.73 µM | GI50 (MCF7 breast): 1.15 µM | TGI (MCF7 breast): 3.35 µM | GI50 (NCI/ADR-RES ovarian): 2.59 µM | TGI (NCI/ADR-RES ovarian): 8.37 µM | GI50 (MDA-MB-231 breast): 2.5 µM | TGI (MDA-MB-231 breast): 10.1 µM | GI50 (DU-145 prostate): 1.34 µM | TGI (DU-145 prostate): 3.15 µM | GI50 (BT-549 breast): 1.87 µM | TGI (BT-549 breast): 4.39 µM

COC1=C(OC)C(=O)C(/C=C(\C)C(=O)O)=C(C)C1=O
GI50 (T-47D breast): > 100 µM | TGI (T-47D breast): > 100 µM | GI50 (MCF7 breast): > 100 µM | TGI (MCF7 breast): > 100 µM | GI50 (NCI/ADR-RES ovarian): > 100 µM | TGI (NCI/ADR-RES ovarian): > 100 µM | GI50 (MDA-MB-231 breast): > 100 µM | TGI (MDA-MB-231 breast): > 100 µM | GI50 (DU-145 prostate): > 100 µM | TGI (DU-145 prostate): > 100 µM | GI50 (BT-549 breast): > 100 µM | TGI (BT-549 breast): > 100 µM

Fc1ccc(-c2nc(-c3nc4ccc(Cl)cc4[nH]3)cc3c2[nH]c2ccccc23)cc1
GI50 (T-47D breast): 2.68 µM | TGI (T-47D breast): 20.9 µM | GI50 (MCF7 breast): 3.27 µM | TGI (MCF7 breast): 16.6 µM | GI50 (NCI/ADR-RES ovarian): 3.42 µM | TGI (NCI/ADR-RES ovarian): 28.3 µM | GI50 (MDA-MB-231 breast): 2.88 µM | TGI (MDA-MB-231 breast): 13.6 µM | GI50 (DU-145 prostate): 3.41 µM | TGI (DU-145 prostate): 12 µM | GI50 (BT-549 breast): 4.62 µM | TGI (BT-549 breast): 18.7 µM

Nc1nc(-c2ccccc2)c(-c2ccccc2)c(-c2nc(N)nc(-c3ccccc3)c2-c2ccccc2)n1
TGI (T-47D breast): > 100 µM | TGI (MCF7 breast): > 100 µM | TGI (NCI/ADR-RES ovarian): > 100 µM | TGI (MDA-MB-231 breast): > 100 µM | TGI (DU-145 prostate): > 100 µM | TGI (BT-549 breast): > 100 µM

CC1=C(N2CC2)C(=O)C(CO)=C(N2CC2)C1=O
TGI (T-47D breast): 0.529 µM | GI50 (MCF7 breast): 0.00487 µM | TGI (MCF7 breast): 0.0938 µM and 0.0967 µM | GI50 (NCI/ADR-RES ovarian): 0.0161 µM | TGI (NCI/ADR-RES ovarian): 0.0671 µM and 0.0182 µM | GI50 (MDA-MB-231 breast): 0.14 µM | TGI (DU-145 prostate): 1.3 µM | TGI (BT-549 breast): 1.95 µM

Clc1ccc(-c2nc3c(-c4ccc(Cl)cc4)nc(-c4ccccc4)cn3c2-c2ccc(Cl)cc2)cc1
GI50 (T-47D breast): > 50 µM | TGI (T-47D breast): > 50 µM | GI50 (MCF7 breast): > 50 µM | TGI (MCF7 breast): > 50 µM | GI50 (NCI/ADR-RES ovarian): > 50 µM | TGI (NCI/ADR-RES ovarian): > 50 µM | GI50 (MDA-MB-231 breast): 27.9 µM | TGI (MDA-MB-231 breast): > 50 µM | GI50 (DU-145 prostate): > 50 µM | TGI (DU-145 prostate): > 50 µM | GI50 (BT-549 breast): 14.2 µM | TGI (BT-549 breast): > 50 µM

COc1cc(CNC(=O)/C=C/C=C/c2ccc3c(c2)OCO3)ccc1OCc1cn(-c2ccc(Cl)c(Cl)c2)nn1
GI50 (T-47D breast): 1.17 µM | TGI (T-47D breast): 3.49 µM | GI50 (MCF7 breast): 0.889 µM | TGI (MCF7 breast): 3.23 µM | GI50 (NCI/ADR-RES ovarian): 1.42 µM | TGI (NCI/ADR-RES ovarian): 4.93 µM | GI50 (MDA-MB-231 breast): 1.95 µM | TGI (MDA-MB-231 breast): 5 µM | GI50 (DU-145 prostate): 1.45 µM | TGI (DU-145 prostate): 3.16 µM | GI50 (BT-549 breast): 1.83 µM | TGI (BT-549 breast): 4.46 µM

COc1ccc(Nc2c3ccccc3nc3c2c2ccccc2n3C)cc1
GI50 (MCF7 breast): 28.3 µM | TGI (MCF7 breast): 86.3 µM | GI50 (NCI/ADR-RES ovarian): 34 µM | TGI (NCI/ADR-RES ovarian): > 100 µM | GI50 (MDA-MB-231 breast): 34.8 µM | TGI (MDA-MB-231 breast): > 100 µM | GI50 (DU-145 prostate): 15.6 µM | TGI (DU-145 prostate): > 100 µM | GI50 (BT-549 breast): 11 µM | TGI (BT-549 breast): 43.4 µM

N#Cc1ccc(Oc2nccc(-c3c(-c4ccc(F)cc4)ncn3C3CCNCC3)n2)cc1
GI50 (T-47D breast): > 25 µM | TGI (T-47D breast): > 25 µM | GI50 (MCF7 breast): 10.7 µM | TGI (MCF7 breast): > 25 µM | GI50 (NCI/ADR-RES ovarian): > 25 µM | TGI (NCI/ADR-RES ovarian): > 25 µM | GI50 (MDA-MB-231 breast): > 22.3 µM | TGI (MDA-MB-231 breast): > 25 µM | GI50 (DU-145 prostate): > 25 µM | TGI (DU-145 prostate): > 25 µM | GI50 (BT-549 breast): 24.9 µM | TGI (BT-549 breast): > 25 µM

c1cncc(CNc2ccccc2-c2nnc(Nc3ccc4c(c3)OCO4)o2)c1
GI50 (T-47D breast): 0.22 µM | TGI (T-47D breast): > 100 µM | GI50 (MCF7 breast): 0.039 µM | TGI (MCF7 breast): > 100 µM | GI50 (NCI/ADR-RES ovarian): 0.0291 µM | TGI (NCI/ADR-RES ovarian): 0.142 µM | GI50 (MDA-MB-231 breast): 0.343 µM | TGI (MDA-MB-231 breast): > 100 µM | GI50 (DU-145 prostate): 0.197 µM | TGI (DU-145 prostate): > 100 µM | GI50 (BT-549 breast): 0.604 µM | TGI (BT-549 breast): > 100 µM
